# Reference: US20230106506A1, “NOVEL PqsR INVERSE AGONISTS” (Helmholtz-Zentrum Fur Infektionsforschung GmbH, priority 2020, published 2023)
# Experiments:
# [1] = test system: P. aeruginosa pyocyanin production; test: Pyocyanin assay; format: cell-based, P. aeruginosa strain PA14; conditions: Pseudomonas aeruginosa, PA14, 16 h, read-out: IC50-value towards pyocyanin production
# Protocol: Inhibition of P. aeruginosa pyocyanin production by compounds was determined photometrically as described before. In short, an overnight culture of PA14 in PPGAS medium was washed, diluted in medium to a start OD600 of 0.02, and incubated for 16 h (37° C., 200 rpm, relative humidity 75%) in the presence of test compounds. Then, cultures were extracted with chloroform and re-extracted with 0.2 M HCl. Protonated red colored pyocyanin was determined by measuring OD520 and normalizing to OD600.
# [2] = Kinetic turbidimetric aqueous solubility; format: physicochemical; conditions: aqueous buffer, kinetic from dmso stock; PBS buffer, final DMSO 2%, absorbance 620 nm; read-out: Kinetic Turbidimetric Aqueous Solubility at room temperature for 5 min
# Protocol: Kinetic Turbidimetric Aqueous Solubility at room temperature for 5 min. […] Data was analyzed by fitting a four parameter sigmoidal function to the measured and normalized absorbances and AUC calculation providing access to Log S (decadic logarithm of the solubility).
# [3] = Metabolic stability in mouse liver microsomes (MLM); format: in vitro ADME; conditions: 1 μM compound, 0.5 mg/mL MLM, 1 mM NADPH, 37° C., read-out: half-life (t1/2) towards MLM
# Protocol: For the evaluation of phase I metabolic stability, the compound (1 μM) was incubated with 0.5 mg/mL MLM (Corning) and 1 mM NADPH at 37° C. for 0, 5, 10, 15 and 30 min. The metabolic stability of Verapamil, Diphenhydramine and Benzydamine (1 μM each) were determined in parallel to confirm the enzymatic activity of the MLM. The incubation was stopped by addition of 2 volumes of acetonitrile containing internal standard (1 μM Leucine Enkephaline). Samples were centrifuged (15 min, 3,500 rpm). Concentration of the remaining test compound at the different time points was analyzed by HPLC-MS/MS and used to determine half-life (t1/2).
SMILES,IC50 [1] [nM],solubility at 5 min [2] [µM],half-life at 1 µM [3] [h]
"CC(C)Oc1ccc(-c2ccc(CNc3cc(-c4cn[nH]c4)nc(C(F)(F)F)c3)cn2)cc1 [Compound 21, N-((6-(4-Isopropoxyphenyl)pyridin-3-yl)methyl)-2-(1H-pyrazol-4-yl)-6-(trifluoromethyl)pyridin-4-amine]",101 to 200,> 25,> 1.67
"CC(C)Oc1ccc(-c2ccc(CNc3cc(-c4cn[nH]c4)nc(C(F)(F)F)c3)cn2)cc1Cl [Compound 23, N-((6-(3-Chloro-4-isopropoxyphenyl)pyridin-3-yl)methyl)-2-(1H-pyrazol-4-yl)-6-(trifluoromethyl)pyridin-4-amine]",201 to 500,> 25,> 1.67
"CC(C)Oc1ccc(-c2ccc(CNc3cc(-c4cn[nH]c4)nc(C(F)(F)F)c3)nc2)cc1Cl [Compound 24, N-((5-(3-Chloro-4-isopropoxyphenyl)pyridin-2-yl)methyl)-2-(1H-pyrazol-4-yl)-6-(trifluoromethyl)pyridin-4-amine]",201 to 500,> 10,> 1.67
"CC(C)Oc1ccc(-c2cnc(CNc3cc(-c4cn[nH]c4)nc(C(F)(F)F)c3)cn2)cc1 [Compound 27, N-((5-(4-Isopropoxyphenyl)pyrazin-2-yl)methyl)-2-(1H-pyrazol-4-yl)-6-(trifluoromethyl)pyridin-4-amine]",101 to 200,> 25,> 1.67
"CC(C)Oc1ccc(-c2ncc(CNc3cc(-c4cn[nH]c4)nc(C(F)(F)F)c3)cn2)cc1 [Compound 28, N-((2-(4-Isopropoxyphenyl)pyrimidin-5-yl)methyl)-2-(1H-pyrazol-4-yl)-6-(trifluoromethyl)pyridin-4-amine]",≤ 100,> 25,1.02 to 1.67
"CC(C)Oc1ccc(-c2ncc(CNc3cc(-n4ccnc4)nc(C(F)(F)F)c3)cn2)cc1Cl [Compound 30, N-((2-(3-Chloro-4-Isopropoxyphenyl)pyrimidin-5-yl)methyl)-2-(1H-imidazol-1-yl)-6-(trifluoromethyl)pyridin-4-amine]",101 to 200,> 10,> 1.67
"CC(C)Oc1ccc(-c2ncc(CNc3cc(-c4cc[nH]n4)nc(C(F)(F)F)c3)cn2)cc1 [Compound 31, N-((2-(4-Isopropoxyphenyl)pyrimidin-5-yl)methyl)-2-(1H-pyrazol-3-yl)-6-(trifluoromethyl)pyridin-4-amine]",201 to 500,> 10,> 1.67
"FC(F)(F)c1cc(NCc2cnc(-c3ccc(Cl)cc3)nc2)cc(-c2cn[nH]c2)n1 [Compound 33, N-((2-(4-Chlorophenyl)pyrimidin-5-yl)methyl)-2-(1H-pyrazol-4-yl)-6-(trifluoromethyl)pyridin-4-amine]",201 to 500,> 10,1.02 to 1.67
"Fc1cc(-c2ncc(CNc3cc(-c4cn[nH]c4)nc(C(F)(F)F)c3)cn2)ccc1Cl [Compound 34, N-((2-(4-Chloro-3-fluorophenyl)pyrimidin-5-yl)methyl)-2-(1H-pyrazol-4-yl)-6-(trifluoromethyl)pyridin-4-amine]",201 to 500,> 10,> 1.67
"FC(F)(F)c1cc(NCc2cnc(-c3ccc(Cl)c(Cl)c3)nc2)cc(-c2cn[nH]c2)n1 [Compound 35, N-((2-(3,4-Dichlorophenyl)pyrimidin-5-yl)methyl)-2-(1H-pyrazol-4-yl)-6-(trifluoromethyl)pyridin-4-amine]",101 to 200,> 10,> 1.67
"N#Cc1cc(-c2ncc(CNc3cc(-n4cncn4)nc(C(F)(F)F)c3)cn2)ccc1Cl [Compound 39, 5-(5-(((2-(1H-1,2,4-Triazol-1-yl)-6-(trifluoromethyl)pyridin-4-yl)amino)methyl)pyrimidin-2-yl)-2-chlorobenzonitrile]",101 to 200,> 10,> 1.67
"CC(C)Oc1ccc(-c2cnc(CNc3cc(-c4cn[nH]c4)nc(C(F)(F)F)c3)nc2)cc1Cl [Compound 47, N-((5-(3-Chloro-4-isopropoxyphenyl)pyrimidin-2-yl)methyl)-2-(1H-pyrazol-4-yl)-6-(trifluoromethyl)pyridin-4-amine]",201 to 500,> 10,0.5 to 1
"CC(C)Oc1ccc(-c2ncc(CNc3cc(-c4cn[nH]c4)nc(C(F)(F)F)c3)cn2)cc1F [Compound 49, N-((2-(3-Fluoro-4-isopropoxyphenyl)pyrimidin-5-yl)methyl)-2-(1H-pyrazol-4-yl)-6-(trifluoromethyl)pyridin-4-amine]",101 to 200,> 10,> 1.67
"Fc1ccccc1Oc1ccc(-c2ncc(CNc3cc(-c4cn[nH]c4)nc(C(F)(F)F)c3)cn2)cc1 [Compound 51, N-((2-(4-(2-Fluorophenoxy)phenyl)pyrimidin-5-yl)methyl)-2-(1H-pyrazol-4-yl)-6-(trifluoromethyl)pyridin-4-amine]",101 to 200,> 50,> 1.67
"FC(F)(F)Oc1ccc(-c2ncc(CNc3cc(-c4cn[nH]c4)nc(C(F)(F)F)c3)cn2)cc1 [Compound 55, 2-(1H-Pyrazol-4-yl)-N-((2-(4-(trifluoromethoxy)phenyl)pyrimidin-5-yl)methyl)-6-(trifluoromethyl)pyridin-4-amine]",201 to 500,> 10,> 1.67
"Nc1ccc(Oc2ccc(-c3ncc(CNc4cc(-c5cn[nH]c5)nc(C(F)(F)F)c4)cn3)cc2)cc1 [Compound 56, N-((2-(4-(4-Aminophenoxy)phenyl)pyrimidin-5-yl)methyl)-2-(1H-pyrazol-4-yl)-6-(trifluoromethyl)pyridin-4-amine]",101 to 200,> 10,1.02 to 1.67
"CC(C)Oc1ccc(-c2cnc(CNc3cc(-c4cn[nH]c4)nc(C(F)(F)F)c3)cn2)cc1Cl [Compound 57, N-((5-(3-Chloro-4-isopropoxyphenyl)pyrazin-2-yl)methyl)-2-(1H-pyrazol-4-yl)-6-(trifluoromethyl)pyridin-4-amine]",101 to 200,> 25,> 1.67
"CC(C)Oc1ccc(-c2ccc(CNc3cc(-c4cn[nH]c4)nc(C(F)(F)F)c3)nn2)cc1Cl [Compound 58, N-((6-(3-Chloro-4-isopropoxyphenyl)pyridazin-3-yl)methyl)-2-(1H-pyrazol-4-yl)-6-(trifluoromethyl)pyridin-4-amine]",101 to 200,> 25,> 1.67
"CC(C)Oc1ccc(-c2ncc(CNc3cc(-n4cncn4)nc(C(F)(F)F)c3)cn2)cc1Cl [Compound 60, N-((2-(3-Chloro-4-isopropoxyphenyl)pyrimidin-5-yl)methyl)-2-(1H-1,2,4-triazol-1-yl)-6-(trifluoromethyl)pyridin-4-amine]",101 to 200,> 10,1.02 to 1.67
"FC(F)(F)c1cc(NCc2nc3cc(Oc4ccccc4)ccc3[nH]2)cc(-n2ccnc2)n1 [Compound 61, 2-(1H-imidazol-1-yl)-N-((5-phenoxy-1H-benzo[d]imidazol-2-yl)methyl)-6-(trifluoromethyl)pyridin-4-amine]",101 to 200,> 10,0.5 to 1
